Data set [1] deals with LPS-induced iNOS-dependent NO production in RAW 264.7 cells. The data set is described as follows: Inhibition of LPS-induced iNOS-dependent NO production (Griess nitrite assay). The format is cell-based, murine. The settings on record: RAW 264.7, 100 ng/mL LPS, 24 h; for NO level: nitrite by Griess, in µM (unit assumed). An excerpt: The isolated compounds 1–9 were subjected into the examination of their effects on LPS-induced iNOS-dependent NO production in RAW 264.7 cells. […] The inhibitory effects of 1, 4 and 9 were less obvious. […] Among the tested compounds, 2, and 5–8 belonged to the ent-kaurane diterpenoids noted for the occurrence in the Annona species.
NO production was indirectly assessed by measuring the nitrite levels in the cultured media and serum determined by a colorimetric method based on the Griess reaction. The cells were incubated with a test sample in the presence of LPS (100 ng/mL) at 37 °C for 24 h. Then, cells were dispensed into 96-well plates, and 100 μL of each supernatant was mixed with the same volume of Griess reagent (1% sulfanilamide, 0.1% naphthyl ethylenediamine dihydrochloride, and 5% phosphoric acid) and incubated at room temperature for 10 min, the absorbance was measured at 540 nm with a Micro-Reader (Molecular Devices). By using sodium nitrite to generate a standard curve, the concentration of nitrite was measured form absorbance at 540 nm.
Experimental results were presented as the mean ± standard deviation (SD) of three parallel measurements. Statistical comparisons were made by Student’s t-test. IC50 values were estimated using a non-linear regression algorithm (SigmaPlot 8.0; SPSS Inc. Chicago, IL, USA). Statistical significance is expressed as * p < 0.05, ** p < 0.01, and *** p < 0.001.

Another data set concerns macrophages. Also on record: method as in PMID 23333629. As to conditions: by interfering with the activation of TAK1 and Akt, preventing NF-κB activation; cited from earlier work.
For a further data set, the system named is RAW 264.7 cells. Briefly: Cell viability (MTT) in the presence of LPS. The settings on record: RAW 264.7, 100 ng/mL LPS, 24 h, MTT.

Structures are written as SMILES.

One may read the inhibition as the drop in the measured response relative to a control, in per cent. For orientation: IC50 means the concentration that gives 50% inhibition.

As to `CC1(C)CC[C@]2(C)CC=C3[C@]4(C)CC[C@H]5C(C)(C)[C@@H](O)CC[C@]5(C)[C@H]4CC[C@@]3(C)[C@@H]2C1` [Compound 3, taraxerol], the NO level in data set [1] (12.5 μM) came to 38.5 ± 2.3; in data set [1] (25 μM) it was 39.5 ± 0.6; in data set [1] (50 μM) it was 35.6 ± 0.9; in data set [1] (100 μM), 22.6 ± 0.4. Besides, the inhibition at 12.5 µM in data set [1] (Mus musculus, RAW264.7, 12.5 μM, read-out: NO inhibition (% of control)) stood at 15.2 ± 5%. For the same compound, the inhibition at 25 µM in data set [1] (Mus musculus, RAW264.7, 25 μM, read-out: NO inhibition (% of control) (converted)) was 13.1%. Further, the inhibition at 50 µM in data set [1] (Mus musculus, RAW264.7, 50 μM, read-out: NO inhibition (% of control) (converted)) was 21.6%. In addition, the inhibition at 100 µM in data set [1] (Mus musculus, RAW264.7, 100 μM, read-out: NO inhibition (% of control) (converted)) was 50.1%. For the same compound, the IC50 in data set [1] (Mus musculus, RAW264.7) was determined as 99.8 ± 0.4 µM. Besides, the “Expression of proinflammatory mediators (in words)” value in the data set with macrophages is “downregulate the expression of proinflammatory mediators”. The “Cell viability (% of control)” value with RAW 264.7 cells (12.5 μM) was 93.5 ± 1.8 % of control; in the data set on RAW 264.7 cells (25 μM), 92.6 ± 3.1 % of control; in the data set with RAW 264.7 cells (50 μM) it was 88.7 ± 1.8 % of control; with RAW 264.7 cells (100 μM), 81.4 ± 2.3 % of control.

Source of the values: paper PMC6270106, “Chemical Constituents from the Leaves of Annona reticulata and Their Inhibitory Effects on NO Production” (Molecules, 2013).
